Among the test systems are KM20L2 colon; M19-MEL melanoma; DMS 273 small cell lung; XF 498 CNS; DMS 114 small cell lung; SNB-78 CNS; HOP-18 NSCLC; DLD-1 colon.
What all share (assay): NCI anticancer screen, dose series, 48 h

Each structure is given as a SMILES string.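 Protocol summary: plate cells (96-well), add compound at 5 concentrations, incubate 48 h, interpolate endpoints linearly. TGI denotes the concentration required for complete inhibition of growth.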 Bounds are passed on as bounds.

As for `BrC1=CCC23CC=C(Br)[C@H]4CC2(COC3)C[C@@H]1O4` (stereo not given in full), the TGI is over 100 µM in the experiment on KM20L2 colon; over 100 µM in the experiment on M19-MEL melanoma; over 100 µM in the experiment on DMS 273 small cell lung; over 100 µM with XF 498 CNS; over 100 µM in the experiment on DMS 114 small cell lung; 93.6 µM with SNB-78 CNS.

With `O=c1cc(-c2ccccc2)c2ccccc2[nH]1`, the TGI was over 100 µM in the experiment with HOP-18 NSCLC; over 100 µM in the experiment on DLD-1 colon; over 100 µM with M19-MEL melanoma; over 100 µM in the experiment on DMS 273 small cell lung; 51.4 µM in the experiment with DMS 114 small cell lung.

Take `Cc1ccc(NCC(=O)N2CC(=O)Nc3ccccc32)c(C)c1`: the TGI in the experiment on HOP-18 NSCLC, in the experiment on KM20L2 colon, in the experiment on DLD-1 colon, in the experiment on M19-MEL melanoma, with DMS 273 small cell lung and with XF 498 CNS was over 100 µM in each case. The TGI in the experiment on SNB-78 CNS is over 100 µM.

In the case of `Cc1c2ccncc2c(C)c2c1[nH]c1ccc(OC(C)C)cc12`, the TGI was 2.93 µM in the experiment on HOP-18 NSCLC; 2.59 µM in the experiment with KM20L2 colon; 3.13 µM in the experiment on DLD-1 colon; 3.42 µM in the experiment on M19-MEL melanoma; 2.07 µM in the experiment with DMS 273 small cell lung; 2.91 µM in the experiment on XF 498 CNS. For the same compound, the TGI is 3.24 µM with DMS 114 small cell lung and 6.05 µM with SNB-78 CNS.

Consider `CN(Cc1ccccc1)C(=NC#N)N(Cc1ccccc1)Cc1ccccc1`, for which the TGI in the experiment with KM20L2 colon was 56.2 µM; in the experiment with DLD-1 colon it was over 100 µM; in the experiment on M19-MEL melanoma, 54.4 µM; in the experiment on DMS 273 small cell lung, 41.8 µM; in the experiment with SNB-78 CNS it was 77.1 µM.

As to `[N-]=[N+]=NC(CCl)c1cn([C@H]2C[C@H](O)[C@@H](CO)O2)c(=O)[nH]c1=O` (stereo not given in full), the TGI in the experiment on HOP-18 NSCLC, in the experiment with KM20L2 colon, with DLD-1 colon, in the experiment with M19-MEL melanoma, in the experiment on DMS 273 small cell lung and with DMS 114 small cell lung was over 100 µM in each case. The compound also came in with a TGI with SNB-78 CNS of over 100 µM.

In the case of `CC(C)=CC1C[C@H](C2CC=C3C2(C)CCC2[C@@]3(C)C(=O)CC3[C@]2(C)C=CC(=O)[C@]3(C)CO)CO1` (stereo not given in full), the TGI with HOP-18 NSCLC stood at 30.1 µM; in the experiment on KM20L2 colon, 19.1 µM; in the experiment on M19-MEL melanoma it was 16.7 µM; in the experiment with DMS 273 small cell lung, 18.4 µM; in the experiment with XF 498 CNS it was 12.9 µM; with DMS 114 small cell lung, 15.9 µM. This compound had a TGI in the experiment on SNB-78 CNS of 48.4 µM.

These data come from PubChem BioAssay (NCI).
